Results as given in ChEMBL document CHEMBL3627601, “Poly(amidoamine) dendrimers show carbonic anhydrase inhibitory activity against α-, β-, γ- and η-class enzymes” (Bioorg Med Chem, 2015).

Experiments:
[1] = Inhibition of Plasmodium falciparum eta-carbonic anhydrase preincubated for 15 mins by stopped-flow CO2 hydration assay
[2] = Inhibition of Porphyromonas gingivalis beta-carbonic anhydrase preincubated for 15 mins by stopped-flow CO2 hydration assay
[3] = Inhibition of Candida glabrata beta-carbonic anhydrase preincubated for 15 mins by stopped-flow CO2 hydration assay; set-up: species or system Nakaseomyces glabratus
[4] = Inhibition of Porphyromonas gingivalis gamma-carbonic anhydrase preincubated for 15 mins by stopped-flow CO2 hydration assay
[5] = Inhibition of Vibrio cholerae alpha-carbonic anhydrase preincubated for 15 mins by stopped-flow CO2 hydration assay
[6] = Inhibition of Leishmania donovani chagasi beta-carbonic anhydrase preincubated for 15 mins by stopped-flow CO2 hydration assay
[7] = Inhibition of Cryptococcus neoformans beta-carbonic anhydrase preincubated for 15 mins by stopped-flow CO2 hydration assay
[8] = Inhibition of Trypanosoma cruzi alpha-carbonic anhydrase preincubated for 15 mins by stopped-flow CO2 hydration assay

SMILES | Ki [1] | Ki [2] | Ki [3] | Ki [4] | Ki [5] | Ki [6] | Ki [7] | Ki [8]
NS(=O)(=O)c1ccc(C(=O)NCCNC(=O)CCN(CCC(=O)NCCNC(=O)c2ccc(S(N)(=O)=O)cc2)CCN(CCC(=O)NCCNC(=O)c2ccc(S(N)(=O)=O)cc2)CCC(=O)NCCNC(=O)c2ccc(S(N)(=O)=O)cc2)cc1 | 69.7 nM | 84.9 nM | 427 nM | 405 nM | 47.2 nM | 75.4 nM | 24 nM | 17.7 nM
NS(=O)(=O)c1ccc(C(=O)NCCNC(=O)CCN(CCNC(=O)CCN(CCC(=O)NCCN(CCC(=O)NCCNC(=O)c2ccc(S(N)(=O)=O)cc2)CCC(=O)NCCNC(=O)c2ccc(S(N)(=O)=O)cc2)CCN(CCC(=O)NCCN(CCC(=O)NCCNC(=O)c2ccc(S(N)(=O)=O)cc2)CCC(=O)NCCNC(=O)c2ccc(S(N)(=O)=O)cc2)CCC(=O)NCCN(CCC(=O)NCCNC(=O)c2ccc(S(N)(=O)=O)cc2)CCC(=O)NCCNC(=O)c2ccc(S(N)(=O)=O)cc2)CCC(=O)NCCNC(=O)c2ccc(S(N)(=O)=O)cc2)cc1 | 58.6 nM | 77 nM | 342 nM | 563 nM | 8.1 nM | 85.6 nM | 83.6 nM | 95.4 nM
